This is an account of results in ChEMBL document CHEMBL1158884, “PSII inhibitory activity of resorcinolic lipids from Sorghum bicolor” (J Nat Prod, 2003).

For experiment [1], the system named is Lactuca sativa. Briefly: Phytotoxicity against Lactuca sativa assessed as inhibition of seedlings germination at 3.33 mM after 4 days. The format is functional, organism-based.
Experiment [2] has as its system Lactuca sativa. Nature of the experiment: Phytotoxicity against Lactuca sativa assessed as inhibition of seedlings germination at 1.0 mM after 4 days. The format is functional, organism-based.
A short description of experiment [3]: Inhibition of Photosystem 2 in spinach thylakoid membrane assessed as inhibition of photosynthetic oxygen evolution. In kind it is cell membranes, Spinacia oleracea.

The source made the active and inactive calls. The calls are words filed in the database; no cut-off is given here.

Usually IC50 stands for the concentration needed to halve the response being measured. Regarding `C=CC/C=C\C/C=C\CCCCCCCc1c(O)c(OC)cc(OC)c1O`, the result in the experiment with Lactuca sativa [1] and in the experiment on Lactuca sativa [2] was Active. Besides, in experiment [3], the IC50 stood at 90 nM.

As for `CN(C)C(=O)Nc1ccc(Cl)c(Cl)c1` [DCMU], the IC50 in experiment [3] was 230 nM.

`C=CC/C=C\C/C=C\CCCCCCCc1c(O)c(OC)cc(OCC)c1O` [E565]: the IC50 in experiment [3] was determined as 200 nM.

As for `C=CC/C=C\C/C=C\CCCCCCCC1=C(O)C(=O)C=C(OC)C1=O` [SORGOLEONE], in the experiment with Lactuca sativa [1], the outcome was Active. In addition, in experiment [3], the half-inhibitory concentration (IC50) turned out to be 90 nM.
